This is an account of results in patent publication US10787442B2, “Modulators of indoleamine 2,3-dioxygenase” (GLAXOSMITHKLINE INTELLECTUAL PROPERTY DEVELOPMENT LIMITED, priority 2016, dated 2020).

What all share (type): cell-based
Data set [1] relates to human peripheral blood mononuclear cells (PBMC). The experiment in a line: PBMC cytotoxicity assay (CellTiter-Glo). To be noted: cytotoxicity in stimulated PBMC, recorded as pCC50. For orientation: In ATP-based viability assays light output follows the ATP content of the culture.
Data set [2] concerns the target indoleamine 2, 3-dioxygenase (IDO1) (Homo sapiens, UniProt P14902). Nature of the data set: IDO1 HeLa RapidFire MS Assay (kynurenine by mass spectrometry). To be noted: HeLa cells stimulated with IFN-γ, 2 days; recorded as pIC50; read-out: IDO1 HeLa PXC50 (converted). How it is done: IDO1 HeLa RapidFire MS Assay
(§1) Compounds of the present invention were tested via high-throughput cellular assays utilizing detection of kynurenine via mass spectrometry and cytotoxicity as end-points. […] Compounds with IDO1 inhibitory properties decreased the amount of kynurenine produced by the cells via the tryptophan catabolic pathway. Cellular toxicity due to the effect of compound treatment was measured using CellTiter-Glo® reagent (CTG) (Promega Corporation, Madison, Wis.), which is based on luminescent detection of ATP, an indicator of metabolically active cells.
(§2) In preparation for the assays, test compounds were serially diluted 3-fold in DMSO from a typical top concentration of 1 mM or 5 mM and plated at 0.5 μL in 384-well, polystyrene, clear bottom, tissue culture treated plates with lids (Greiner Bio-One, Kremsmünster, Austria) to generate 11-point dose response curves. Low control wells (0% kynurenine or 100% cytotoxicity) contained either 0.5 μL of DMSO in the presence of unstimulated (−IFN-γ) HeLa cells for the mass spectrometry assay or 0.5 μL of DMSO in the absence of cells for the cytotoxicity assay, and high control wells (100% kynurenine or 0% cytotoxicity) contained 0.5 μL of DMSO in the presence of stimulated (+IFN-γ) HeLa cells for both the mass spectrometry and cytotoxicity assays.
(§3) Frozen stocks of HeLa cells were washed and recovered in DMEM high glucose medium with HEPES (Thermo Fisher Scientific, Inc., Waltham, Mass.) supplemented with 10% v/v certified fetal bovine serum (FBS) (Thermo Fisher Scientific, Inc., Waltham, Mass.), and 1× penicillin-streptomycin antibiotic solution (Thermo Fisher Scientific, Inc., Waltham, Mass.). The cells were diluted to 100,000 cells/mL in the supplemented DMEM medium. 50 μL of either the cell suspension, for the mass spectrometry assay, or medium alone, for the cytotoxicity assay, were added to the low control wells, on the previously prepared 384-well compound plates, resulting in 5,000 cells/well or 0 cells/well respectively. IFN-γ was added to the remaining cell suspension at a final concentration of 10 nM, and 50 μL of the stimulated cells were added to all remaining wells on the 384-well compound plates. The plates, with lids, were then placed in a 37° C., 5% CO2 humidified incubator for 2 days.
(§4) Following incubation, the 384-well plates were removed from the incubator and allowed to equilibrate to room temperature for 30 minutes. For the cytotoxicity assay, CellTiter-Glo® was prepared according to the manufacturer's instructions, and 10 μL were added to each plate well. After a twenty minute incubation at room temperature, luminescence was read on an EnVision® Multilabel Reader (PerkinElmer Inc., Waltham, Mass.). For the mass spectrometry assay, 10 μL of supernatant from each well of the compound-treated plates were added to 40 μL of acetonitrile, containing 10 μM of an internal standard for normalization, in 384-well, polypropylene, V-bottom plates (Greiner Bio-One, Kremsmünster, Austria) to extract the organic analytes. Following centrifugation at 2000 rpm for 10 minutes, 10 μL from each well of the acetonitrile extraction plates were added to 90 μL of sterile, distilled H2O in 384-well, polypropylene, V-bottom plates for analysis of kynurenine and the internal standard on the RapidFire 300 (Agilent Technologies, Santa Clara, Calif.) and 4000 QTRAP MS (SCIEX, Framingham, Mass.). MS data were integrated using Agilent Technologies' RapidFire Integrator software, and data were normalized for analysis as a ratio of kynurenine to the internal standard.

In data set [3] the test system is human epithelial HeLa cells. The experiment in a line: HeLa cytotoxicity assay (CellTiter-Glo). To be noted: cytotoxicity in stimulated HeLa cells, recorded as pCC50. As to the method:
as §1, §2, §3, §4

indoleamine 2, 3-dioxygenase (IDO1), sequence (P14902 whole entry): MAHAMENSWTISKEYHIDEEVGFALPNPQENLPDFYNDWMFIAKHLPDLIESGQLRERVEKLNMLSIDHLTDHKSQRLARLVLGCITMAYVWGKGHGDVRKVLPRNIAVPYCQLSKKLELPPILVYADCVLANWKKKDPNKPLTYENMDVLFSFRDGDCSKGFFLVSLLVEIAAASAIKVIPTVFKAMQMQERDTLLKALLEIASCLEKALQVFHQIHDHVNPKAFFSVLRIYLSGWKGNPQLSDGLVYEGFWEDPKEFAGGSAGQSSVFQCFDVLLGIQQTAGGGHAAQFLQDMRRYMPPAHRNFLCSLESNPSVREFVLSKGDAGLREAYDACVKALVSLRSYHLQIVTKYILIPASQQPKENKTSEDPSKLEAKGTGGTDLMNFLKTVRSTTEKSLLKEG

Turning to `CC(C)CN(c1ncc([C@H](C)CC(=O)O)cc1Nc1ccc(Cl)c(F)n1)C1CCOCC1` [Example 7, (R)-3-(5-((5-chloro-6-fluoropyridin-2-yl)amino)-6-(isobutyl(tetrahydro-2H-pyran-4-yl)amino)pyridin-3-yl)butanoic acid], in data set [1], the “PBMC_TOX PXC50” value was less than 5.0. For the same compound, in data set [2], the IC50 is 12.6 nM. The HELA_IDO1_TOX_PXC50 in data set [3] was less than 5.
In the same order, the values of `CC(C)CN(c1ncc([C@H](C)CC(=O)O)cc1Nc1nc(Cl)ns1)C1CCC(F)(F)CC1` [Example 30, (R)-3-(5-((3-chloro-1,2,4-thiadiazol-5-yl)amino)-6-((4,4-difluorocyclohexyl)(isobutyl)amino)pyridin-3-yl)butanoic acid] are less than 5.0, 39.8 nM and less than 5.
In the same order, the values of `CC(C)CN(c1ncc(C(C)CC(=O)O)cc1Nc1nc(C(F)(F)F)ns1)C1CCOCC1` (centres unmarked) [Example 31, 3-{6-[(2-methylpropyl)(oxan-4-yl)amino]-5-{[3-(trifluoromethyl)-1,2,4-thiadiazol-5-yl]amino}pyridin-3-yl}butanoic acid] are less than 5.0, 5.01 nM and less than 5.
As for `CC(C)CN(c1ncc(C(C)CC(=O)O)cc1Nc1ccc(C#N)cn1)C1CCOCC1` (centres unmarked) [Example 33, 3-{5-[(5-cyanopyridin-2-yl)amino]-6-[(2-methylpropyl)(oxan-4-yl)amino]pyridin-3-yl}butanoic acid], the “PBMC_TOX PXC50” value in data set [1] is less than 5.0. Besides, the IC50 in data set [2] was 20 nM. Besides, the HELA_IDO1_TOX_PXC50 in data set [3] is less than 5.
For the compound `CC(C)CN(c1ncc(C(C)CC(=O)O)cc1Nc1ccc(Cl)cn1)C1CCOCC1` (centres unmarked) [Example 35, 3-{5-[(5-chloropyridin-2-yl)amino]-6-[(2-methylpropyl)(oxan-4-yl)amino]pyridin-3-yl}butanoic acid], the “PBMC_TOX PXC50” value in data set [1] is reported as less than 5.0. Moreover, the IC50 in data set [2] was 7.94 nM. This compound returned an HELA_IDO1_TOX_PXC50 in data set [3] of less than 5.
In the same order, the values of `CC(C)CN(c1ncc(C(C)CC(=O)O)cc1Nc1nc(Cl)ns1)C1CCOCC1` (centres unmarked) [Example 34, 3-{5-[(3-chloro-1,2,4-thiadiazol-5-yl)amino]-6-[(2-methylpropyl)(oxan-4-yl)amino]pyridin-3-yl}butanoic acid] are less than 5.0, 316 nM and less than 5.
In the same order, the values of `CC(C)CN(c1ncc([C@H](C)CC(=O)O)cc1Nc1cnc(Cl)nc1)C1CCOCC1` [Example 5, (R)-3-(5-((2-chloropyrimidin-5-yl)amino)-6-(isobutyl(tetrahydro-2H-pyran-4-yl)amino)pyridin-3-yl)butanoic acid] are less than 5.0, 15.8 nM and less than 5.
In the same order, the values of `CC(C)CN(CC(C)C)c1ncc(C(C)CC(=O)O)cc1Nc1nc(Cl)ns1` (centres unmarked) [Example 32, 3-{6-[bis(2-methylpropyl)amino]-5-[(3-chloro-1,2,4-thiadiazol-5-yl)amino]pyridin-3-yl}butanoic acid] are less than 5.0, 631 nM and less than 5.
On to `C[C@H](CC(=O)O)c1cnc(N(CCCCCN)C2CCOCC2)c(Nc2ccc(Cl)cn2)c1` [Example 83, (3R)-3-{6-[(5-aminopentyl)(oxan-4-yl)amino]-5-[(5-chloropyridin-2-yl)amino]pyridin-3-yl}butanoic acid], for which, in data set [1], the “PBMC_TOX PXC50” value is on record as less than 5.0. Besides, the IC50 in data set [2] was 10 nM. This compound yielded an HELA_IDO1_TOX_PXC50 in data set [3] of less than 5.
In the same order, the values of `C[C@H](CC(=O)O)c1cnc(N(CCCCCNC(=O)OC2CC/C=C/CCC2)C2CCOCC2)c(Nc2ccc(Cl)cn2)c1` (stereo partly drawn) [Example 84, (3R)-3-{5-[(5-chloropyridin-2-yl)amino]-6-{[5-({[(4E)-cyclooct-4-en-1-yloxy]carbonyl}amino)pentyl](oxan-4-yl)amino}pyridin-3-yl}butanoic acid] are less than 5.0, 10 nM and less than 5.
`CC(C)CN(c1ncc(C(C)CC(=O)O)cc1Nc1ccc(C(F)(F)F)cn1)C1CCOCC1` (centres unmarked) [Example 2, 3-(6-(isobutyl(tetrahydro-2H-pyran-4-yl)amino)-5-((5-(trifluoromethyl)pyridin-2-yl)amino)pyridin-3-yl)butanoic acid]: the “PBMC_TOX PXC50” value in data set [1] is reported as less than 5.0. Also, the IC50 in data set [2] is 10 nM. This compound showed an HELA_IDO1_TOX_PXC50 in data set [3] of less than 5.
In the same order, the values of `CC(C)CN(CC(C)C)c1ncc([C@H](C)CC(=O)O)cc1Nc1nc(C(F)(F)F)ns1` [Example 40, (3R)-3-{6-[bis(2-methylpropyl)amino]-5-{[3-(trifluoromethyl)-1,2,4-thiadiazol-5-yl]amino}pyridin-3-yl}butanoic acid] are less than 5.6, 7.94 nM and less than 5.
As for `CC(C)CN(c1ncc([C@H](C)CC(=O)O)cc1Nc1nc(C(F)(F)F)ns1)C1CC(F)(F)C1` [Example 20, (R)-3-(6-((3,3-difluorocyclobutyl)(isobutyl)amino)-5-((3-(trifluoromethyl)-1,2,4-thiadiazol-5-yl)amino)pyridin-3-yl)butanoic acid], the “PBMC_TOX PXC50” value in data set [1] is reported as less than 5.0. Moreover, the IC50 in data set [2] is 12.6 nM. This compound yielded an HELA_IDO1_TOX_PXC50 in data set [3] of less than 5.
Take `CC(C)CN(c1ncc(C(C)CC(=O)O)cc1Nc1nnc(C2CC2)s1)C1CCOCC1` (centres unmarked) [Example 36, 3-{5-[(5-cyclopropyl-1,3,4-thiadiazol-2-yl)amino]-6-[(2-methylpropyl)(oxan-4-yl)amino]pyridin-3-yl}butanoic acid]: the “PBMC_TOX PXC50” value in data set [1] is listed as less than 5.0. In data set [2], the IC50 is 7.94 nM.
Turning to `CC(C)CN(CC(C)C)c1ncc(C(C)CC(=O)O)cc1Nc1nc(C(F)(F)F)ns1` (centres unmarked) [Example 1, 3-(6-(diisobutylamino)-5-((3-(trifluoromethyl)-1,2,4-thiadiazol-5-yl)amino)pyridin-3-yl)butanoic acid], the “PBMC_TOX PXC50” value in data set [1] was less than 5.0. In addition, the IC50 in data set [2] is 10 nM. The compound further came in with an HELA_IDO1_TOX_PXC50 in data set [3] of less than 5.
In the same order, the values of `CC(C)CN(c1ncc([C@H](C)CC(=O)O)cc1Nc1ccc(Cl)nc1)C1CCOCC1` [Example 4, (R)-3-(5-((6-chloropyridin-3-yl)amino)-6-(isobutyl(tetrahydro-2H-pyran-4-yl)amino)pyridin-3-yl)butanoic acid] are less than 5.0, 10 nM and less than 5.
In the same order, the values of `CC(C)CN(c1ncc(-c2ccccc2C(=O)O)cc1Nc1nc(C(F)(F)F)ns1)C1CCOCC1` [Example 29, 2-(6-(isobutyl(tetrahydro-2H-pyran-4-yl)amino)-5-((3-(trifluoromethyl)-1,2,4-thiadiazol-5-yl)amino)pyridin-3-yl)benzoic acid] are less than 5.0, 15.8 nM and less than 5.
